Source: patent US20250276983A1, “COMPOUNDS AND METHODS FOR MODULATING HER2” (IAMBIC THERAPEUTICS, INC., priority 2022, published 2025)
Like-named read-outs stand apart in the source and are kept apart here.

Key:
Type in all cases: cell-based
BaF3_HER2YVMA cells = assay: Cell growth inhibition assay, BaF3_HER2YVMA; conditions: BaF3_HER2YVMA cells, 3 days treatment, CellTiterGlo 2.0, read-out: HER2-YVMA IC50 (nM), cell growth inhibition
BaF3_HER2WT cells = assay: Cell growth inhibition assay, BaF3_HER2WT; conditions: 3 days treatment, CellTiterGlo 2.0, read-out: HER2 WT IC50 (nM), cell growth inhibition
BaF3_EGFRWT cells = assay: Cell growth inhibition assay, BaF3_EGFRWT; conditions: 80 ng/mL recombinant human EGF, 3 days treatment, CellTiterGlo 2.0, read-out: EGFR WT IC50 (nM), cell growth inhibition

Row | Structure (SMILES) | IC50 (BaF3_HER2YVMA cells; 72 h) | IC50 (BaF3_HER2WT cells; 72 h) | IC50 (BaF3_EGFRWT cells; 72 h) | IC50 (BaF3_HER2YVMA cells) | IC50 (BaF3_HER2WT cells) | IC50 (BaF3_EGFRWT cells)
1 | Cc1cc(Nc2ncnn3ccc(C4CC5CCC4CN5C(=O)/C=C/CN(C)C)c23)ccc1Oc1ccn2ncnc2c1 (single isomer, unassigned) [Examples 137 and 138, second eluting isomer, (E)-1-(5-(4-((4-([1,2,4]triazolo[1,5-a]pyridin-7-yloxy)-3-methylphenyl)amino)pyrrolo[2,1-f][1,2,4]triazin-5-yl)-2-azabicyclo[2.2.2]octan-2-yl)-4-(dimethylamino)but-2-en-1-one] | 1500 to 5000 nM | 500 to 1500 nM | 1500 to 5000 nM | – | – | –
2 | Cc1cc(Nc2ncnn3ccc(C4CCN(C(=O)/C=C/CN5CCOCC5)CC4)c23)ccc1Oc1ccn2ncnc2c1 [Example 56, (E)-1-(4-(4-((4-([1,2,4]triazolo[1,5-a]pyridin-7-yloxy)-3-methylphenyl)amino)pyrrolo[2,1-f][1,2,4]triazin-5-yl)piperidin-1-yl)-4-morpholinobut-2-en-1-one] | < 200 nM | < 200 nM | 1500 to 5000 nM | – | – | –
3 | Cc1cc(Nc2ncnn3ccc(N4CC(NC(=O)/C=C/CN5CCOCC5)C4)c23)ccc1Oc1ccn2ncnc2c1 [Example 81, (E)-N-(1-(4-((4-([1,2,4]triazolo[1,5-a]pyridin-7-yloxy)-3-methylphenyl)amino)pyrrolo[2,1-f][1,2,4]triazin-5-yl)azetidin-3-yl)-4-morpholinobut-2-enamide] | 1500 to 5000 nM | 200 to 500 nM | 1500 to 5000 nM | – | – | –
4 | Cc1cc(Nc2ncnn3ccc(C4CCN(C(=O)/C=C/CN5CCN(C)CC5)CC4)c23)ccc1Oc1ccn2ncnc2c1 [Example 24, (E)-1-(4-(4-((4-([1,2,4]triazolo[1,5-a]pyridin-7-yloxy)-3-methylphenyl)amino)pyrrolo[2,1-f][1,2,4]triazin-5-yl)piperidin-1-yl)-4-(4-methylpiperazin-1-yl)but-2-en-1-one] | 500 to 1500 nM | < 200 nM | 1500 to 5000 nM | – | – | –
5 | C=CC(=O)N1C2CCC1CN(c1ccn3ncnc(Nc4ccc(Oc5ccn6ncnc6c5)c(C)c4)c13)C2 [Example 46, 1-(3-(4-((4-([1,2,4]triazolo[1,5-a]pyridin-7-yloxy)-3-methylphenyl)amino)pyrrolo[2,1-f][1,2,4]triazin-5-yl)-3,8-diazabicyclo[3.2.1]octan-8-yl)prop-2-en-1-one] | < 200 nM | < 200 nM | 200 to 500 nM | – | – | –
6 | C=CC(=O)N1C[C@H]2C[C@@H]1C[C@H]2c1ccn2ncnc(Nc3ccc(Oc4ccn5ncnc5c4)c(C)c3)c12 (relative stereo) [Example 104, Rel-1-[(1S,4S,5R)-5-{4-[(3-methyl-4-{[1,2,4]triazolo[1,5-a]pyridin-7-yloxy}phenyl)amino]pyrrolo[2,1-f][1,2,4]triazin-5-yl}]-2-azabicyclo[2.2.1]heptan-2-yl]prop-2-en-1-one] | 1500 to 5000 nM | 500 to 1500 nM | 1500 to 5000 nM | – | – | –
7 | CO[C@H]1CN(C/C=C/C(=O)N2CCC(c3ccn4ncnc(Nc5ccc(Oc6ccn7ncnc7c6)c(C)c5)c34)CC2)C[C@H]1OC [Example 169, (E)-1-(4-(4-((4-([1,2,4]triazolo[1,5-a]pyridin-7-yloxy)-3-methylphenyl)amino)pyrrolo[2,1-f][1,2,4]triazin-5-yl)piperidin-1-yl)-4-((3R,4S)-3,4-dimethoxypyrrolidin-1-yl)but-2-en-1-one] | < 200 nM | < 200 nM | 1500 to 5000 nM | – | – | –
8 | C=CC(=O)N1CC(N(C)c2ccn3ncnc(Nc4ccc(Oc5ccn6ncnc6c5)c(C)c4)c23)C1 [Example 77, 1-(3-((4-((4-([1,2,4]triazolo[1,5-a]pyridin-7-yloxy)-3-methylphenyl)amino)pyrrolo[2,1-f][1,2,4]triazin-5-yl)(methyl)amino)azetidin-1-yl)prop-2-en-1-one] | 1500 to 5000 nM | 200 to 500 nM | 1500 to 5000 nM | – | – | –
9 | Cc1cc(Nc2ncnn3ccc(C4CCCN(C(=O)/C=C/CN(C)C)C4)c23)ccc1Oc1ccn2ncnc2c1 (single isomer, unassigned) [Examples 107 and 108, first eluting isomer, (E)-1-(3-(4-((4-([1,2,4]triazolo[1,5-a]pyridin-7-yloxy)-3-methylphenyl)amino)pyrrolo[2,1-f][1,2,4]triazin-5-yl)piperidin-1-yl)-4-(dimethylamino)but-2-en-1-one] | – | – | 1500 to 5000 nM | 500 to 1500 nM | < 200 nM | –
10 | Cc1cc(Nc2ncnn3ccc(C4CCN(C(=O)/C=C/CN)CC4)c23)ccc1Oc1ccn2ncnc2c1 [Example 150, (E)-1-(4-(4-((4-([1,2,4]triazolo[1,5-a]pyridin-7-yloxy)-3-methylphenyl)amino)pyrrolo[2,1-f][1,2,4]triazin-5-yl)piperidin-1-yl)-4-aminobut-2-en-1-one] | 1500 to 5000 nM | 500 to 1500 nM | 1500 to 5000 nM | – | – | –
11 | Cc1cc(Nc2ncnn3ccc(C4CCN(C(=O)/C=C/CN(C)C)CC4)c23)ccc1Oc1ccc2c(c1)ncn2C [Example 133, (E)-4-(dimethylamino)-1-(4-(4-((3-methyl-4-((1-methyl-1H-benzo[d]-224-midazole-5-yl)oxy)phenyl)amino)pyrrolo[2,1-f][1,2,4]triazin-5-yl)piperidin-1-yl)but-2-en-1-one] | < 200 nM | < 200 nM | 1500 to 5000 nM | – | – | –
12 | Cc1cc(Nc2ncnn3ccc(C4CN(C(=O)/C=C/C5CCCN5C)C4)c23)ccc1Oc1ccn2ncnc2c1 (single isomer, unassigned) [Examples 171 and 172, second eluting isomer, (E)-1-(3-(4-((4-([1,2,4]triazolo[1,5-a]pyridin-7-yloxy)-3-methylphenyl)amino)pyrrolo[2,1-f][1,2,4]triazin-5-yl)azetidin-1-yl)-3-(1-methylpyrrolidin-2-yl)prop-2-en-1-one] | < 200 nM | < 200 nM | 1500 to 5000 nM | – | – | –
13 | C=CC(=O)N1C[C@H]2C[C@@H]1C[C@@H]2c1ccn2ncnc(Nc3ccc(Oc4ccn5ncnc5c4)c(C)c3)c12 [Example 141, 1-[(1S,4S,5S)-5-{4-[(3-methyl-4-{[1,2,4]triazolo[1,5-a]pyridin-7-yloxy}phenyl)amino]pyrrolo[2,1-f][1,2,4]triazin-5-yl}-2-azabicyclo[2.2.1]heptan-2-yl]prop-2-en-1-one] | 500 to 1500 nM | 200 to 500 nM | 1500 to 5000 nM | – | – | –
14 | Cc1cc(Nc2ccn3ncnc(C4CC5CCC(C4)N5C(=O)/C=C/CN(C)C)c23)ccc1Oc1ccn2cnnc2c1 (stereo not drawn) [Example 33, (E)-1-(3-(5-((4-([1,2,4]triazolo[4,3-a]pyridin-7-yloxy)-3-methylphenyl)amino)pyrrolo[2,1-f][1,2,4]triazin-4-yl)-8-azabicyclo[3.2.1]octan-8-yl)-4-(dimethylamino)but-2-en-1-one acetate] | 200 to 500 nM | < 200 nM | 1500 to 5000 nM | – | – | –
15 | C=CC(=O)NC1CCN(c2ccn3ncnc(Nc4ccc(Oc5ccn6ncnc6c5)c(C)c4)c23)C1 (stereo not drawn) [Example 79, N-(1-(4-((4-([1,2,4]triazolo[1,5-a]pyridin-7-yloxy)-3-methylphenyl)amino)pyrrolo[2,1-f][1,2,4]triazin-5-yl)pyrrolidin-3-yl)acrylamide] | 200 to 500 nM | < 200 nM | 1500 to 5000 nM | – | – | –
16 | Cc1cc(Nc2ncnn3ccc(N4CCC(N(C)C(=O)/C=C/CN(C)C)C4)c23)ccc1Oc1ccn2ncnc2c1 (stereo not drawn) [Example 70, (E)-N-(1-(4-((4-([1,2,4]triazolo[1,5-a]pyridin-7-yloxy)-3-methylphenyl)amino)pyrrolo[2,1-f][1,2,4]triazin-5-yl)pyrrolidin-3-yl)-4-(dimethylamino)-N-methylbut-2-enamide] | < 200 nM | < 200 nM | 1500 to 5000 nM | – | – | –
17 | Cc1cc(Nc2ncnn3ccc(C4CCN(C(=O)/C=C/C(=O)O)CC4)c23)ccc1Oc1ccn2ncnc2c1 [Example 142, (E)-4-(4-(4-((4-([1,2,4]triazolo[1,5-a]pyridin-7-yloxy)-3-methylphenyl)amino)pyrrolo[2,1-f][1,2,4]triazin-5-yl)piperidin-1-yl)-4-oxobut-2-enoic acid] | 1500 to 5000 nM | 1500 to 5000 nM | 1500 to 5000 nM | – | – | –
18 | Cc1cc(Nc2ncnn3ccc(C4CC5CCC(C4)N5C(=O)/C=C/CN(C)C)c23)ccc1Oc1ccn2ncnc2c1 (single isomer, unassigned) [Examples 122 and 123, first eluting isomer, (E)-1-(-3-(4-((4-([1,2,4]triazolo[1,5-a]pyridin-7-yloxy)-3-methylphenyl)amino)pyrrolo[2,1-f][1,2,4]triazin-5-yl)-8-azabicyclo[3.2.1]octan-8-yl)-4-(dimethylamino)but-2-en-1-one] | < 200 nM | < 200 nM | – | – | – | 500 to 1500 nM
19 | Cc1cc(Nc2ncnn3ccc(C4CCCN(C(=O)/C=C/CN(C)C)CC4)c23)ccc1Oc1ccn2ncnc2c1 (single isomer, unassigned) [Examples 109 and 110, first eluting isomer, (E)-1-(4-(4-((4-([1,2,4]triazolo[1,5-a]pyridin-7-yloxy)-3-methylphenyl)amino)pyrrolo[2,1-f][1,2,4]triazin-5-yl)azepan-1-yl)-4-(dimethylamino)but-2-en-1-one] | < 200 nM | < 200 nM | 1500 to 5000 nM | – | – | –
20 | Cc1cc(Nc2ncnn3ccc(C4CCCN(C(=O)/C=C/CN(C)C)C4)c23)ccc1Oc1ccn2ncnc2c1 (single isomer, unassigned) [Examples 107 and 108, second eluting isomer, (E)-1-(3-(4-((4-([1,2,4]triazolo[1,5-a]pyridin-7-yloxy)-3-methylphenyl)amino)pyrrolo[2,1-f][1,2,4]triazin-5-yl)piperidin-1-yl)-4-(dimethylamino)but-2-en-1-one] | – | – | – | 1500 to 5000 nM | 500 to 1500 nM | 1500 to 5000 nM
